# Earlier results in patent US20220133691A1, “LASOFOXIFENE TREATMENT OF VVA AND OSTEOPOROSIS IN SURVIVORS OF BREAST CANCER AND OTHER MALIGNANCIES” (Sermonix Pharmaceuticals, Inc., priority 2016, published 2022).
# System: post-menopausal women with osteoporosis
# Conditions: PEARL trial
smiles,measurement,setting,value
Oc1ccc2c(c1)CC[C@H](c1ccccc1)[C@@H]2c1ccc(OCCN2CCCC2)cc1 [lasofoxifene],risk of osteoporosis,"Cummings et al., NEJM 2010",reduce the risk of osteoporosis
same,risk of breast cancer,"post-menopausal women with osteoporosis, LaCroix et al., JNCI 2010",reduced the risk of breast cancer
